According to patent KR20140134170A, “신경염증 질환의 예방 또는 치료용 약학 조성물” (이화여자대학교 산학협력단, priority 2013, dated 2014):

How the values were obtained:
TNF-α [1] = assay: TNF-α release from LPS-activated BV2 microglia (sandwich ELISA); type: cell-based, mouse; conditions: LPS 100 ng/ml, compound 1 h before LPS
nitric oxide [산화질소] = assay: Nitric oxide production by LPS-activated BV2 microglia (Griess reaction); type: cell-based, mouse; conditions: LPS 100 ng/ml, compound 1 h before LPS
IL-6 = IL-6 production by LPS-activated BV2 microglia (sandwich ELISA); type: cell-based, mouse; conditions: LPS 100 ng/ml, compound 1 h before LPS
IL-10 = IL-10 production by LPS-activated BV2 microglia (sandwich ELISA); type: cell-based, mouse; conditions: LPS 100 ng/ml, compound 1 h before LPS
[2] = test system: intracellular reactive oxygen species [세포내 활성산소종 (reactive oxygen species; ROS)]; assay: Intracellular reactive oxygen species in LPS-activated BV2 microglia (H2DCF-DA fluorescence); type: cell-based, mouse
JNK = JNK activation in LPS-activated BV2 microglia (western blot, p-JNK); type: cell-based, mouse; conditions: LPS 100 ng/ml 3 h, compound 1 h before LPS
ERK = ERK activation in LPS-activated BV2 microglia (western blot, p-ERK); type: cell-based, mouse; conditions: LPS 100 ng/ml 3 h, compound 1 h before LPS
p38 = p38 activation in LPS-activated BV2 microglia (western blot, p-p38); type: cell-based, mouse; conditions: LPS 100 ng/ml 3 h, compound 1 h before LPS
MK2 = MK2 activation in LPS-activated BV2 microglia (western blot, p-MK2); type: cell-based, mouse; conditions: LPS 100 ng/ml 3 h, compound 1 h before LPS
NF-κB = NF-κB DNA complex formation in LPS-activated BV2 microglia (EMSA); type: cell-based, mouse; conditions: LPS 100 ng/ml 3 h, compound 1 h before LPS
AP-1 = AP-1 DNA complex formation in LPS-activated BV2 microglia (EMSA); type: cell-based, mouse; conditions: LPS 100 ng/ml 3 h, compound 1 h before LPS
TNF-α [3] = assay: Serum TNF-α in LPS systemic inflammation mice (sandwich ELISA); type: in vivo, mouse; conditions: 3 h after LPS
TNF-α [4] = assay: Cerebrospinal fluid TNF-α in LPS systemic inflammation mice (sandwich ELISA); type: in vivo, mouse; conditions: vs vehicle
TNF-α [5] = assay: TNF-α protein expression in cerebral cortex of LPS systemic inflammation mice (western blot); type: in vivo, mouse; conditions: 3 h after LPS, vs vehicle
IL-1β = IL-1β protein expression in cerebral cortex of LPS systemic inflammation mice (western blot); type: in vivo, mouse; conditions: 3 h after LPS, vs vehicle
microglia [소교세포] [6] = assay: Microglial activation in cerebral cortex of LPS systemic inflammation mice (Iba1 immunofluorescence); type: in vivo, mouse; conditions: 3 h after LPS
[7] = Brain infarct volume in ischemic stroke model MCAo/Rep (TTC staining); type: in vivo, rat; conditions: 5 mg/kg i.p. once immediately after reperfusion, 22 h after reperfusion
[8] = Neurological score in ischemic stroke model MCAo/Rep; type: in vivo, rat; conditions: 5 mg/kg i.p. once immediately after reperfusion; vs control; P=0.0047
brain cells [뇌세포] = assay: Brain cell damage in ischemic stroke model MCAo/Rep (Nissl staining); type: in vivo, rat; conditions: 5 mg/kg i.p. once immediately after reperfusion; cortex and striatum; 22 h after reperfusion
microglia [소교세포] [9] = assay: Microglial activation in ischemic stroke model MCAo/Rep (Iba-1 immunohistochemistry); type: in vivo, rat; conditions: 5 mg/kg i.p. once immediately after reperfusion; stroke hemisphere; 22 h after reperfusion; stroke control 138.8±7.4; P<0.01
TNF-α [10] = assay: TNF-α producing cells in ischemic stroke model MCAo/Rep (immunohistochemistry); type: in vivo, rat; conditions: 5 mg/kg i.p. once immediately after reperfusion; stroke hemisphere; 22 h after reperfusion; stroke control 648.3±64.70; P<0.05

In the case of `COc1ccc(S(=O)(=O)N2Cc3ccccc3C[C@@H]2C(=O)NO)cc1` [본 발명의 화합물, (3R)-(+)-[2-(4-메톡시벤젠설포닐)-1,2,3,4-테트라하이드로이소퀴놀린-3-하이드록사메이트], the TNF-α production (TNF-α [1]) was “현저하게 감소됨”, the nitric oxide production (nitric oxide [산화질소]) was “농도 의존적으로 억제됨” and the IL-6 production (IL-6) was “농도 의존적으로 억제됨”. The IL-10 production (IL-10) was “생성을 증가시키는 것”, the “intracellular reactive oxygen species” value ([2]; compound at 10 μM or more, compared with control) was “대조군과 유사한 수준으로 감소됨” and the “intracellular reactive oxygen species” value ([2]; concentration dependence) was “농도 의존적으로 억제함”. The “activated JNK” value (JNK) was “농도 의존적으로 감소함”, the “activated ERK” value (ERK) was “농도 의존적으로 감소함” and the “activated p38” value (p38) was “농도 의존적으로 감소함”. For the same compound, the “activated MK2” value (MK2) was “농도 의존적으로 감소함”, the NF-κB complex formation (NF-κB) was “감소됨” and the AP-1 complex formation (AP-1) was “감소됨”. For the same compound, the “serum TNF-α level” value (TNF-α [3]; 5 mg/kg i.p. daily from 4 days before LPS 5 mg/kg i.p.) was “현저히 감소”, the “serum TNF-α level” value (TNF-α [3]; 1 and 5 mg/kg i.p. daily from 4 days before LPS 5 mg/kg i.p., dose dependence) was “용량의존적으로 TNF-α수준이 감소” and the “cerebrospinal fluid TNF-α level” value (TNF-α [4]; 1 mg/kg i.p. daily from 4 days before LPS) was “통계적으로 의미있는 TNF-α발현 감소”. The “cerebrospinal fluid TNF-α level” value (TNF-α [4]; 5 mg/kg i.p. daily from 4 days before LPS) was “통계적으로 의미있는 TNF-α발현 감소”, the “TNF-α expression in cerebral cortex” value (TNF-α [5]; 1 mg/kg i.p.) was “비이클 투여와 차이가 없었으나” and the “decrease of TNF-α expression in cerebral cortex” value (TNF-α [5]; 5 mg/kg i.p.) was 40%. For the same compound, the “IL-1β expression in cerebral cortex” value (IL-1β; 1 mg/kg i.p.) was “비이클 투여와 차이가 없었으나”, the “decrease of IL-1β expression in cerebral cortex” value (IL-1β; 5 mg/kg i.p.) was 50% and the “number of activated microglia” value (microglia [소교세포] [6]; 1 mg/kg i.p., vs vehicle) was “비이클 투여와 차이가 없었으나”. For the same compound, the “number of activated Iba1-labelled cells (microglia)” value (microglia [소교세포] [6]; 5 mg/kg i.p., area 500 μm2, control 10.12±1.45, LPS 41.17±2.95, p<0.01 vs vehicle) was 20.0±3.82, the “infarct volume (infarct volume / whole brain volume × 100)” value ([7]; MCAo/Rep control 29.17%) was 18.90% and the “decrease of infarct size vs control” value ([7]; P=0.0452) was ~35.21%. The “neurological score (maximum 18)” value [8] was “유의적 감소”, the “brain cell damage by stroke” value (brain cells [뇌세포]) was “극명하게 감소” and the “number of activated microglia” value (microglia [소교세포] [9]) was 47.67±10.73 cells. The “number of TNF-α producing cells” value (TNF-α [10]) was 402.8±74.73 cells.
